Active and inactive are the calls of the source. No cut-off for these calls is given here.
How the values were obtained:
Rattus norvegicus [1] = experiment: Uterotrophic activity in spayed Wistar rat assessed as autopsies by measuring uterus weight at 0.1 umol, po after 1 week (reference value: 15.1 +/- 0.51 mg); format: functional
Rattus norvegicus [2] = experiment: Uterotrophic activity in spayed Wistar rat assessed as autopsies by measuring uterus weight at 0.1 umol, po after 2 weeks (reference value: 15.9 +/- 0.50 mg); format: functional

| SMILES | Activity (Rattus norvegicus [1]) | Activity (Rattus norvegicus [2]) |
| --- | --- | --- |
| C#C[C@]1(OC(C)=O)CC[C@H]2[C@@H]3CC=C4C=C(O[C@H]5CC[C@H]6[C@@H]7CCc8cc(O)ccc8[C@H]7CC[C@]56C)CC[C@@H]4[C@H]3CC[C@@]21C | 38.1 mg | 26.7 mg |
| C#C[C@]1(O)CC[C@H]2[C@@H]3CCc4cc(O)ccc4[C@H]3CC[C@@]21C [ETHINYL ESTRADIOL] | 22.5 mg | 20.5 mg |
| CCC(=O)O[C@H]1CC[C@H]2[C@@H]3CC[C@@H]4CC(O[C@H]5CC[C@H]6[C@@H]7CCc8cc(OC(=O)c9ccccc9)ccc8[C@H]7CC[C@]56C)CC[C@]4(C)[C@H]3CC[C@]12C (some centres undefined) | inactive | inactive |
| C[C@]12CC[C@@H]3c4ccc(OC5CCCC5)cc4CC[C@H]3[C@@H]1CC[C@@H]2OC1=CC2=CC[C@@H]3[C@H](CC[C@]4(C)[C@@H](O)CC[C@@H]34)[C@H]2CC1 | 35.8 mg | 27.1 mg |
| CCC(=O)O[C@H]1CC[C@H]2[C@@H]3CC[C@H]4CC(O[C@H]5CC[C@H]6[C@@H]7CCc8cc(OC(=O)c9ccccc9)ccc8[C@H]7CC[C@]56C)=CC[C@]4(C)[C@H]3CC[C@]12C | 23.3 mg | 21.3 mg |
| C[C@]12CCC(O[C@H]3CC[C@H]4[C@@H]5CCc6cc(O)ccc6[C@H]5CC[C@]34C)C[C@H]1CC[C@@H]1[C@@H]2CC[C@]2(C)[C@@H](O)CC[C@@H]12 (some centres undefined) | inactive | inactive |
| C[C@]12CC[C@H]3[C@@H](CC=C4C=C(O[C@H]5CC[C@H]6[C@@H]7CCc8cc(OC(=O)c9ccccc9)ccc8[C@H]7CC[C@]56C)CC[C@@H]43)[C@@H]1CC[C@@H]2OC(=O)c1ccccc1 | 31.3 mg | 18.1 mg |
| C[C@]12CC[C@@H]3c4ccc(OC5CCCC5)cc4CC[C@H]3[C@@H]1CC[C@@H]2OC1=CC2=CC[C@@H]3[C@H](CC[C@]4(C)C(=O)CC[C@@H]34)[C@H]2CC1 | 29.1 mg | 26.2 mg |
| C#C[C@]1(OC(C)=O)CC[C@H]2[C@@H]3CC=C4C=C(O[C@H]5CC[C@H]6[C@@H]7CCc8cc(OC(=O)CCC)ccc8[C@H]7CC[C@]56C)CC[C@@H]4[C@H]3CC[C@@]21C | 26.5 mg | 18.3 mg |
| C#C[C@@]1(OC(C)=O)CC[C@H]2[C@@H]3CC=C4C=C(O[C@H]5CC[C@H]6[C@@H]7CCc8cc(OC(=O)c9ccccc9)ccc8[C@H]7CC[C@]56C)CC[C@@H]4[C@H]3CC[C@@]21C | inactive | inactive |
| C[C@]12CC[C@@H]3c4ccc(OC(=O)c5ccccc5)cc4CC[C@H]3[C@@H]1CC[C@@H]2OC1=CC2=CC[C@@H]3[C@H](CC[C@]4(C)C(=O)CC[C@@H]34)[C@H]2CC1 | 59.8 mg | 43.7 mg |
| C[C@]12CC[C@@H]3c4ccc(O)cc4CC[C@H]3[C@@H]1CC[C@@H]2OC1=CC2=CC[C@@H]3[C@H](CC[C@]4(C)C(=O)CC[C@@H]34)[C@H]2CC1 | 71.7 mg | 43.6 mg |
| C[C@]12CC[C@@H]3c4ccc(O)cc4CC[C@H]3[C@@H]1CC[C@@H]2OC1=CC2=CC[C@@H]3[C@H](CC[C@]4(C)[C@@H](O)CC[C@@H]34)[C@H]2CC1 | 59.9 mg | 41.6 mg |
| C[C@]12CC[C@@H]3c4ccc(O)cc4CC[C@H]3[C@@H]1CC[C@@H]2OC1=CC2=CC[C@H]3[C@@H]4CC[C@H](O)[C@@]4(C)CC[C@@H]3[C@@]2(C)CC1 | 50.2 mg | 36.8 mg |
| C#C[C@]1(OC(C)=O)CC[C@H]2[C@@H]3CC=C4C=C(O[C@H]5CC[C@H]6[C@@H]7CCc8cc(OC9CCCC9)ccc8[C@H]7CC[C@]56C)CC[C@@H]4[C@H]3CC[C@@]21C | 17.9 mg |  |

Reference: ChEMBL document CHEMBL3243925, “Disteroidyl ethers. 1. Synthesis and oral long-lasting uterotrophic activity of 1,3,5(10)-estratrien-17-yl enol ethers of 3-keto steroids” (1977)
